Experiments:
human TRPV4 [1] = target: T1, human TRPV4 (Homo sapiens (Human), UniProt Q9HBA0); assay: Test Example 3: measurement of TRPV4 inhibitory activity (Fluo-3, FDSS 3000, 4α-PDD); assay type: cell-based; settings: hTRPV4/CHO cells, calculated from IC50 and 4α-PDD EC50
Procedure: (§1) For each compound, TRPV4 inhibitory activity was measured using cells.
(§2) (1) The TRPV4 inhibitory activity was measured using CHO-K1 cells stably expressing human TRPV4 (hTRPV4/CHO cells).
(2) Frozen cells were thawed and subcultured with the medium (MEM-α, 10% FBS, […], 50 unit/mL penicillin, 50 μg/mL streptomycin, 1 mg/mL G418).
(3) The 96-well plates which hTRPV4/CHO cells were seeded at densities of 2×10^4 cells/well in the culture medium and cultured in a CO2 incubator in the presence of 5% CO2 at 37° C. for 24 h was used as assay plates.
(4) The assay plate was washed with assay buffer (Hanks, […], […], pH7.4).
(5) Fluo-3, fluorescent dye for Ca influx assay was added to each well, then the assay plate was incubated in a CO2 incubator in the presence of 5% CO2 at 37° C. for one hour (final conc.; 5 μmmol/L Fluo-3).
(6) The assay plate was washed with the assay buffer, and the buffer was remained at 30 μL/well. Then the assay plate was incubated for 10 min at 37° C.
(7) Diluted compound solution was dispensed to each well in the compound plate, and mixed with built-in Pipette and Mixer of the fluorescence analysis system FDSS 3000 (Hamamatsu Photonics).
(8) 50 μL of 4α-PDD solution (concluding 0.1% Pluronic F-127) was applied to each well of assay plate and mixed.
(9) The fluorescent intensity was measured by FDSS 3000 for 8 min from the point of time addition the compound solution, at Ex 480 nm, Em 540 nm wavelength.
TRPV4 inhibitory activity (Ki value) of a compound was evaluated according to the following procedure.
(10) In the presence of the compound, the difference between maximal and minimal of fluorescent intensity value for 8 min from just before addition of 4α-PDD solution was calculated, and it was referred as Max-Min value. Max-Min value of the Ruthenium Red at 10 μM was defined as 100% inhibitory activity, Max-Min value in the absence of the compound was defined as 0% inhibitory activity. The TRPV4 inhibitory activity of the compound was calculated by the following formula. (1−(Max-Min value of the compound−100% inhibitory activity)/(0% inhibitory activity−100% inhibitory activity))×100 (11) By the following formula, inhibitory activity was calculated at 10 points with three fold serial dilution, in the final concentration of the compound from 10 μmmol/L to 0.5 nmol/L. The IC50 value was calculated by dose-response curve. 100−[(fluorescent intensity in the presence of the compound−fluorescent intensity of back ground)/(total fluorescent intensity−fluorescent intensity of back ground)]×100 (12) In the presence of the compound, activity of 4α-PDD was measured at 9 points with three fold serial dilution from 20 μmol/L. Activity of 4α-PDD was calculated by the following formula. (Max-Min value of the each 4α-PDD concentration−0% activity)/(100% activity−0% activity))×100 (13) Effective activity was calculated in 4α-PDD the above. The EC50 value was calculated by dose-response curve. (14) The Ki value of a compound was calculated by the following formula. Ki (nmol/L)=IC50 value (nmol/L)/([A]/EC50 value (nmol/L)) [A]; Concentration of agonist (nmol/L)

human TRPV4 [2] = target: T1, human TRPV4; assay: Test Example 1: measurement of TRPV4 inhibitory activity (Fluo 4-AM, FLIPR TETRA, 4α-PDD 1 μmol/L); assay type: cell-based; settings: hTRPV4/CHO cells; for IC50: 4α-PDD 1 μmol/L; for Ki: calculated from IC50 and 4α-PDD EC50
Procedure: as §1, §2
(2) In the day before the experimental day, frozen cell were thawed and washed with the culture medium (MEM-α, 10% FBS, 2 mmol/L GlutaMax, 50 unit Penicillin, 50 μg/mL Streptomycin). Then cells were suspended in the culture medium.
(3) The 384-well plates which hTRPV4/CHO cells were seeded at densities of 4000 cells/well in the culture medium and cultured in a CO2 incubator in the presence of 5% CO2 at 37° C. for overnight was used as assay plates.
(4) The assay plate was washed with assay buffer (Hanks, 20 mmol/L HEPES, 2.5 mmol/L probenecid, pH7.4), and the buffer were remained at 20 μL/well.
(5) 10 μl of dye loading buffer (9 μmol/L Fluo 4-AM, 0.09% Pluronic F-127/assay buffer) was added to each well, then the assay plate was incubated in a CO2 incubator in the presence of 5% CO2 at 37° C. for one hour. (final 3 μmol/L Fluo4-AM).
(6) The assay plate was washed with the assay buffer, and the buffers were remained at 20 μL/well. Then the assay plate was incubated for 10 min at room temperature.
(7) Diluted compound solution was dispensed to each well in the compound plate, and mixed with built-in Pipette and Mixer of the Fluorescence analysis system FLIPR TETRA (Molecular devices).
(8) After incubation for 5 min, 20 μL of 4α-PDD solution were applied to each well of assay plate and mixed with the FLIPR TETRA. (final 1 μmol/L 4α-PDD)
(9) The fluorescent intensity was measured with FLIPR TETRA system for 10 min from the point of time addition the compound solution, at Ex 470-495 nm, Em 515-575 nm wavelength.
TRPV4 inhibitory activity (IC50 value and Ki value) of a compound was evaluated according to the following procedure.
(10) In the presence of the compound, the difference between maximal and minimal of fluorescent intensity value for 5 min from just before addition of 4α-PDD solution was calculated, and it was referred as Max-Min value. Max-Min value of the Ruthenium Red at 20 μM was defined as 100% inhibitory activity, Max-Min value in the absence of the compound was defined as 0% inhibitory activity. The TRPV4 inhibitory activity of the compound was calculated by the following formula. (1−(Max-Min value of the compound−100% inhibitory activity)/(0% inhibitory activity−100% inhibitory activity))×100 (11) Inhibitory activity was calculated at 10 points with three fold serial dilution, in the final concentration of the compound from 10 μmmol/L to 0.5 nmol/L, the IC50 value was calculated by logistic approximation method. (12) In the absence of the compound, the fluorescent intensity was measured as the same method with 10, 1, 0.5, 0.2, and 0 μmol/L as final concentration of 4α-PDD. The difference of minimal and maximal fluorescent intensity value for 5 min from just before addition of 4α-PDD solution was calculated, and it was referred as Max-Min value. Max-Min value of the 4α-PDD at 10 μmol/L was defined as 100% activity, Max-Min value in the absence of 4α-PDD was defined as 0% activity. The TRPV4 activity of each concentration of 4α-PDD was calculated by the following formula. (Max-Min value of the each 4α-PDD concentration−0% activity)/(100% activity−0% activity))×100 (13) Effective activity was calculated in 5 concentrations of 4α-PDD the above. The EC50 value was calculated by logistic approximation method. The Ki value of a compound was calculated by the following formula. Ki (nmol/L)=IC50 value (nmol/L)/(1+[…] (test 4α-PDD concentration (nmol/L)/EC50 value (nmol/L))

T1 sequence (Q9HBA0 whole entry): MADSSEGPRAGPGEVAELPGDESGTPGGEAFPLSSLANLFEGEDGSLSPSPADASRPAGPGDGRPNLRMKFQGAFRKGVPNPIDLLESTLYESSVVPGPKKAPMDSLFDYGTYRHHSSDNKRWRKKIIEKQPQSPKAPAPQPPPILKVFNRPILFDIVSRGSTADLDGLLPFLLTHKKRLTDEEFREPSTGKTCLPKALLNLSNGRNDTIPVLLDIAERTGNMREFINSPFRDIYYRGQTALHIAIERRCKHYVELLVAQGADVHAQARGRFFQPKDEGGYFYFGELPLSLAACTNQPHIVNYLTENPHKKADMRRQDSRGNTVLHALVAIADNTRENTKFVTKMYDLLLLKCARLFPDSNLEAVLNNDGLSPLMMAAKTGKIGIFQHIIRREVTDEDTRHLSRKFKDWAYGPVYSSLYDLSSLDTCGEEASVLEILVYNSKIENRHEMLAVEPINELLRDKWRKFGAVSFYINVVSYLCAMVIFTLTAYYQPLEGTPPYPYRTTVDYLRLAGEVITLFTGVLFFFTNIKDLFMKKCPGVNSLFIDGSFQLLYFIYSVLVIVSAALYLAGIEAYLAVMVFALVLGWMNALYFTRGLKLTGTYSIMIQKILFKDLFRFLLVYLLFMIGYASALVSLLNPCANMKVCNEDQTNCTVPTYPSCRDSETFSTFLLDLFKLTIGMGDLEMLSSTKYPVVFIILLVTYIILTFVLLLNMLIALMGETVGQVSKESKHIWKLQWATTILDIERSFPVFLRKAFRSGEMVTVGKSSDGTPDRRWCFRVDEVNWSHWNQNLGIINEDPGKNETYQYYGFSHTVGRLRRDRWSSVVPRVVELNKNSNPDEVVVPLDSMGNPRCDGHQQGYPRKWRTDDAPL

Ki (human TRPV4 [1]) [µM] | IC50 (human TRPV4 [2]) [µM] | Ki (human TRPV4 [2]) [µM] | SMILES
3.96 | – | – | Cc1c(C(=O)OCc2ccccc2)cc(C(C)(C)C)n1CCCN1CCOCC1 [Compound I-001]
0.701 | – | – | Cc1c(C(=O)Nc2cccc(C(F)(F)F)c2)cc(-c2ccccc2)n1CCCN(C)C(=O)OC(C)(C)C [Compound I-030]
1 | – | – | Cc1c(C(=O)Nc2cccc(C(F)(F)F)c2)cc(-c2ccccc2)n1CCCN(C)CC1CCOC1 (stereo not shown) [Compound I-036]
1.8 | – | – | CCOC(=O)C1CC1CN(C)CCCn1c(-c2ccccc2)cc(C(=O)Nc2cccc(C(F)(F)F)c2)c1C (stereo not shown) [Compound I-037]
1.12 | – | – | Cc1c(C(=O)Nc2cccc(C(F)(F)F)c2)cc(-c2ccccc2)n1CCCN(C)C(=O)C1CCCCC1 [Compound I-042]
0.844 | – | – | Cc1c(C(=O)Nc2cccc(C(F)(F)F)c2)cc(-c2ccccc2)n1CCCN(C)C(=O)c1cccs1 [Compound I-044]
1.68 | – | – | Cc1c(C(=O)Nc2cccc(C(F)(F)F)c2)cc(-c2ccccc2)n1CCCN(C)C(=O)Cc1cccs1 [Compound I-046]
0.32 | – | – | Cc1c(C(=O)Nc2cccc(C(F)(F)F)c2)cc(-c2ccccc2)n1CCCN(C)C(=O)c1ccncc1 [Compound I-047]
0.978 | – | – | Cc1c(C(=O)Nc2cccc(C(F)(F)F)c2)cc(-c2ccccc2)n1CCCN(C)C(=O)c1cccnc1 [Compound I-053]
1.17 | – | – | Cc1c(C(=O)Nc2cccc(C(F)(F)F)c2)cc(-c2ccccc2)n1CCCN(C)C(=O)c1ccccn1 [Compound I-054]
– | 5.3 | 1.5 | Cc1c(C(=O)Nc2cccc(C(F)(F)F)c2)cc(C(C)(C)C)n1[C@H]1CC[C@@H](N)CC1 [Compound I-116]
– | 9.2 | 2.5 | CNCCCn1c(C(C)(C)C)cc(S(=O)(=O)Nc2cccc(C(F)(F)F)c2)c1C [Compound I-117]
– | 0.78 | 0.24 | Cc1c(C(=O)Nc2cccc(C(F)(F)F)c2)cc(C(C)(C)C)n1CC(F)(F)CN1CCOCC1 [Compound I-122]
– | 1.5 | – | Cc1c(C(=O)Nc2cccc(C(F)(F)F)c2)cc(C(C)(C)C)n1CC(F)(F)CN1CCNCC1 [Compound I-125]

The remaining lines, values behind:

SMILES | Ki (human TRPV4 [1]) [µM] | IC50 (human TRPV4 [2]) [µM] | Ki (human TRPV4 [2]) [µM]
Cc1c(C(=O)Nc2cccc(C(F)(F)F)c2)cc(-c2ccccc2)n1CCCNc1ccccc1 [Compound I-011] | 1.7 | – | –
Cc1c(C(=O)Nc2cccc(C(F)(F)F)c2)cc(-c2ccccc2)n1CCCN(C)c1ccccc1 [Compound I-012] | 1.14 | – | –
Cc1c(C(=O)Nc2cccc(Cl)c2)cc(-c2ccccc2)n1CCCN1CCOCC1 [Compound I-013] | 0.453 | – | –
Cc1c(C(=O)Nc2nc3ccccc3s2)cc(-c2ccccc2)n1CCCN1CCOCC1 [Compound I-020] | 0.992 | – | –
Cc1c(C(=O)Nc2cccc(C(C)C)c2)cc(-c2ccccc2)n1CCCN1CCOCC1 [Compound I-029] | 0.519 | – | –
Cc1c(C(=O)Nc2cccc(C(F)(F)F)c2)cc(-c2ccccc2)n1CCCN(C)CCOCc1ccccc1 [Compound I-034] | 2.62 | – | –
Cc1c(C(=O)Nc2cccc(C(F)(F)F)c2)cc(-c2ccccc2)n1CCCN(C)CC1CCOCC1 [Compound I-040] | 1.14 | – | –
COC(=O)CCCN(C)CCCn1c(-c2ccccc2)cc(C(=O)Nc2cccc(C(F)(F)F)c2)c1C [Compound I-041] | 0.988 | – | –
Cc1c(C(=O)Nc2cccc(C(F)(F)F)c2)cc(-c2ccccc2)n1CCCN(C)C(=O)c1ccco1 [Compound I-043] | 1.38 | – | –
COCC(=O)N(C)CCCn1c(-c2ccccc2)cc(C(=O)Nc2cccc(C(F)(F)F)c2)c1C [Compound I-045] | 1.72 | – | –
Cc1c(C(=O)Nc2cccc(C(F)(F)F)c2)cc(-c2ccccc2)n1CCCN(C)C(=O)c1ccc2c(c1)OCO2 [Compound I-048] | 1.31 | – | –
COCCOCC(=O)N(C)CCCn1c(-c2ccccc2)cc(C(=O)Nc2cccc(C(F)(F)F)c2)c1C [Compound I-050] | 1.14 | – | –
Cc1c(C(=O)Nc2cccc(C(F)(F)F)c2)cc(-c2ccccc2)n1CCCN(C)C(=O)C(C)C [Compound I-051] | 0.59 | – | –
Cc1c(C(=O)Nc2cccc(C(F)(F)F)c2)cc(-c2ccccc2)n1CCCN(C)C(=O)C1CC1 [Compound I-052] | 0.707 | – | –
Cc1c(C(=O)Nc2cccc(C(F)(F)F)c2)cc(C(C)(C)C)n1[C@H]1CC[C@@H](NS(C)(=O)=O)CC1 [Compound I-115] | – | 6 | 1.6
Cc1c(S(=O)(=O)Nc2cccc(C(F)(F)F)c2)cc(C(C)(C)C)n1CCCN1CCOCC1 [Compound I-118] | – | 9.2 | 2.5
Cc1c(C(=O)Nc2cccc(C(F)(F)F)c2)cc(C(C)(C)C)n1[C@H]1CC[C@@H](N(C)S(C)(=O)=O)CC1 [Compound I-120] | – | 3.5 | 1.1
CNCC(F)(F)Cn1c(C(C)(C)C)cc(C(=O)Nc2cccc(C(F)(F)F)c2)c1C [Compound I-121] | – | 1.4 | 0.45
Cc1c(C(=O)Nc2cccc(C(F)(F)F)c2)cc(C(C)(C)C)n1CC(C)(C)CN1CCNCC1 [Compound I-123] | – | 1.4 | 0.45
Cc1c(C(=O)Nc2cccc(C(F)(F)F)c2)cc(C(C)(C)C)n1CCC(C)N1CCNCC1 (stereo not shown) [Compound I-124] | – | 0.26 | –
Cc1c(-c2nc3ccccc3o2)cc(C(C)(C)C)n1CCCN1CCNCC1 [Compound I-126] | – | 4.5 | –
Cc1c(-c2nc3ccccc3[nH]2)cc(C(C)(C)C)n1CCCN1CCOCC1 [Compound I-127] | – | 3.1 | –
Cc1c(-c2nc3ccccc3[nH]2)cc(C(C)(C)C)n1CCCN1CCNCC1 [Compound I-128] | – | 5.4 | –
CNCCCn1c(C(C)(C)C)cc(-c2nc3ccccc3[nH]2)c1C [Compound I-129] | – | 6.4 | –

Source: patent US9340500B2, “Aromatic heterocyclic derivative having TRPV4-inhibiting activity” (SHIONOGI & CO., LTD., priority 2011, dated 2016)
